Here are results for 1 compound from article PMC2920594 (Journal of the American Chemical Society, 2010).

Each structure is given as a SMILES string. ≈ marks a conversion by molar mass, not a printed value.

This assay deals with FtsZ (Escherichia coli, UniProt P0A9A6). Kind of assay: STD NMR and STD NMR competition with GTPγS. Type of assay: biochemical.
FtsZ, sequence (P0A9A6 whole entry): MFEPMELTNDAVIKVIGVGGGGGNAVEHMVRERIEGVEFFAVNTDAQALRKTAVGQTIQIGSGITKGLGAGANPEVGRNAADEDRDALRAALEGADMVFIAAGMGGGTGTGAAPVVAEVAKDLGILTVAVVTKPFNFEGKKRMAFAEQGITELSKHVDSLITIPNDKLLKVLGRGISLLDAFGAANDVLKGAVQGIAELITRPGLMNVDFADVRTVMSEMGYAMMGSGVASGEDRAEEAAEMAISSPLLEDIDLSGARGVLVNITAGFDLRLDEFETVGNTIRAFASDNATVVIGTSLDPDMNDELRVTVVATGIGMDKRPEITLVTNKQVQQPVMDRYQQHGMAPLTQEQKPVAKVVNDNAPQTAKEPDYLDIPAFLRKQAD

Broadly, the IC50 is the concentration that gives 50% inhibition. Low values mean greater potency in that assay, high ones weaker potency in that assay. `Oc1cc(O)c2c(c1)C/C(Cl)=C\Cc1cc(c(Cl)cc1O)Oc1c(O)cc(cc1O)C/C(Cl)=C\Cc1cc(c(Cl)cc1O)O2` [compound 1, chrysophaentin A] registered an IC50 of 6.7 ± 1.7 µg/mL (≈ 9.88 µM).
